Publication PMC4436593, “Endoplasmic reticulum stress-independent activation of unfolded protein response kinases by a small molecule ATP-mimic” (eLife, 2015)

How the values were obtained:
IRE1α-KR43 = IRE1α-KR43 (Homo sapiens, UniProt O75460); experiment: IRE1α-KR43 RNA cleavage assay with 5′ [32P]-labeled RNA substrate HP21 (kobs, single turnover); format: biochemical; parameters: IRE1α-KR43 comprises the soluble cytoplasmic portion of IRE1α, composed of the kinase and RNase domains plus 43 amino acids of the linker; 6xHis (N, cleaved yes); made in house; host or cells: SF21 insect cells; conditions: for 1/2kmax, obs (IRE1α-KR43 concentration at half-maximal kobs) / Hill coefficient n: RNase activity as a function of IRE1α-KR43 concentration
Sequence of IRE1α-KR43 (O75460 465-977 limits assumed): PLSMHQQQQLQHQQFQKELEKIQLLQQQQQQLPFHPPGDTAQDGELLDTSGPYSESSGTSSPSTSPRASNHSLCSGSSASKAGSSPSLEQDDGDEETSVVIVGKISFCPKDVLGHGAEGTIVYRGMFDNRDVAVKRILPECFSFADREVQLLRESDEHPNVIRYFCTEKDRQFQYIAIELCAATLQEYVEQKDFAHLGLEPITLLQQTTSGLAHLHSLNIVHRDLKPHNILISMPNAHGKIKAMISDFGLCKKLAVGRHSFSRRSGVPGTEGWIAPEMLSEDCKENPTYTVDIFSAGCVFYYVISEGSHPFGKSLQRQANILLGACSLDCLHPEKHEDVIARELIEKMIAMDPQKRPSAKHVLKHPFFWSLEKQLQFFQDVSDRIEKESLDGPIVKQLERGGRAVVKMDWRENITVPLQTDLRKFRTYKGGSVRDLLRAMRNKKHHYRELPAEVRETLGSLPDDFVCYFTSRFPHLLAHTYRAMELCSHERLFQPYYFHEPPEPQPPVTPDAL
Description: To this end, we modified the molecule by substituting urea-linked and variably m- and p-substituted phenyl groups for the benzimidazole of APY29. Diphenyl urea linkers have previously been used successfully in the design of kinase inhibitors ([Dar et al., 2008]; [Dar and Shokat, 2011]; [Korennykh et al., 2012]). In exploring the addition of this chemotype on the APY29 scaffold, we generated a panel of 10 variants (Figure 1B). Each member of the panel was tested in an RNase activity assay using recombinant IRE1α-KR43 and a labeled short hairpin RNA substrate derived from human XBP1 mRNA. IRE1α-KR43 comprises the soluble cytoplasmic portion of IRE1α, composed of the kinase and RNase domains plus 43 amino acids of the linker that bridges the kinase to its transmembrane domain.
Human IRE1α-KR43 with a hexa-histidine (6xHis) tag in its N-terminus was expressed and purified in SF21 cells as described ([Li et al., 2010]). Cells were lysed in buffer containing 20 mM Tris-HCl, pH 7.5, 600 mM NaCl, 2 mM MgCl2, 3 mM imidazole, 10% glycerol, 1% Triton X-100, 3 mM β-mercaptoethanol, COMPlete protease inhibitors (Roche), and PhosSTOP phosphatase inhibitor cocktail (Roche) and passed through an AVESTIN emulsiflex-C3 3× times for complete lysis. The lysate was cleared using centrifugation at 100,000×g. Clear lysate was allowed to incubate on Ni-NTA agarose (Qiagen) beads for 2 hr before being washed 3× times with buffer containing 20 mM Tris-HCl, pH7.5, 600 mM NaCl, 2 mM MgCl2, 30 mM imidazole, 10% glycerol, and 3 mM β-mercaptoethanol. Protein was eluted from the column by raising the imidazole concentration to 250 mM. The eluate was then passed through a HiTrap desalting column (GE Healthcare). Lastly, the 6xHis was cleaved as described ([Li et al., 2010]) and the resulting protein was then loaded onto a HisTrap HP, 5 × 5 ml column to remove the uncleaved protein. The cleaved protein was then loaded on a Mono-S 5/50 GL column (GE Healthcare), and the eluate was then concentrated to 5 mg/ml and loaded on a Superdex 200 HR 10/300 (GE Healthare) column in buffer containing 20 mM Tris-HCl pH 7.5, 250 mM NaCl, 5% Glycerol and 5 mM tris(2-carboxyethyl)phosphine (TCEP). The pure protein solution was aliquoted and stored at −80°C.

PERK (535–1093 Δ660–868) = target: T1, PERK (535–1093 Δ660–868) (Homo sapiens, UniProt Q9NZJ5, DEL660-868); experiment: In vitro PERK activation assay (rate of eIF2α phosphorylation by dephosphorylated tag-free PERK cytosolic domain); format: biochemical
T1 construct: GST (N, cleaved yes); made in house; host or cells: E. coli BL21 star (DE3), co-expressed with lambda phosphatase
T1 sequence (Q9NZJ5 with tags, fused parts or gaps DEL660-868): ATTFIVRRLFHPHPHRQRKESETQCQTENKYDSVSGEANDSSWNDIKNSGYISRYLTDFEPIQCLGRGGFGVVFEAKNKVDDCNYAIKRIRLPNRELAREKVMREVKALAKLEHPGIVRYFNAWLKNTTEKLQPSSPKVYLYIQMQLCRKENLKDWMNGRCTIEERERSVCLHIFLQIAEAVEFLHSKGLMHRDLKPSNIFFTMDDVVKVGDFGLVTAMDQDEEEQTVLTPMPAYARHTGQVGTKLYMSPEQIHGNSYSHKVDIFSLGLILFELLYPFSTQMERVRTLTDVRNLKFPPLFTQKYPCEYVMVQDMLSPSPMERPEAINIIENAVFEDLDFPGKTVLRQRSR
Excerpt: To address directly whether PERK activation resulted from IPA binding to PERK itself, we recombinantly expressed the cytosolic portion of human PERK and eIF2α, the only known PERK substrate, and reconstituted the phosphorylation reaction in vitro. To this end, the cytosolic portion of PERK was dephosphorylated and then proteolytically severed and chromatographically separated from its glutathione S-transferase tag, known to promote-constitutive multimerization. The resulting PERK cytosolic fragment was responsive to activation, by contrast to the constitutively active, phosphorylated PERK-GST fusion protein assayed in Figure 4—figure supplement 1.
Full-length cytosolic human PERK was codon-optimized for E. coli expression by Genewiz Inc. A construct was then cloned into a Pgex-6p-2 vector for expression using two rounds of In-Fusion cloning (Clontech) (535–1093 Δ660–868). The cytosolic portion of PERK, lacking the unstructured loop region (amino acids 535–1093 Δ660–868) was then co-expressed with a tagless lambda phosphatase to produce a fully dephosphorylated PERK protein in BL21 star (DE3) (Life Technologies) ([Dar et al., 2008]). Cells were grown to an OD600 of 0.5 before induction with 0.1 mM IPTG at 15°C for 25 hr. Cells were harvested and lysed using AVESTIN Emulsiflex-C3 in a buffer containing 50 mM Tris-HCl, pH 8.0, 500 mM NaCl, 10% glycerol, 5 mM TCEP (buffer A), and EDTA-free COMPlete protease inhibitor cocktail (Roche). Lysate was cleared by centrifugation at 100,000×g before batch binding to a GST-Sepharose resin. The resin was washed 5× times with buffer A, and on-column tag cleavage was preformed using PreScission protease (GE Healthcare). The protein was loaded onto a HiTrap Q HP column to remove remaining protease. The PERK (535–1093 Δ660–868) protein was then concentrated and fractionated on a Superdex 200 GL (GE Healthcare) to remove uncleaved GST-PERK protein.
PERK activation was measured using PERK (535–1093 Δ660–868) in a buffer containing 20 mM Tris-HCl, 150 mM NaCl, 4 mM MgCl2, 5 mM TCEP, 1% glycerol, pH 8.0. PERK concentration was 1 μM, and activity was measured at 30°C. PERK was pre-incubated with 50 μM of cold ATP in the presence or absence of IPA or IPAx. The reaction was then initiated by adding S. cerevisiae eIF2α (1–180) and 0.2 mCi γ-[^32P]-ATP. The reaction was monitored over a time course of 30 min, during which 1/6 of the reaction volume was removed at 0.5, 1, 5, 10, 20, and 30 min and stopped in Laemmli buffer supplemented with 50 mM EDTA. […] Gels were quantified using ImageQuant software and data were processed using SigmaPlot software package. Rates were determined using non-linear regression. Experiments were performed 3 times, and mean errors were determined.

IRE1α activation as a function of enzyme concentration (in words) (IRE1α-KR43; compound 20 μM, versus no-compound control)	IRE1α RNase activation (in words) (IRE1α-KR43; compounds 1 μM, IRE1α-KR43 200 nM, versus DMSO control or cmp6/cmp7)	effect on the rate of PERK activity (PERK (535–1093 Δ660–868); IPAx 20 μM)	PERK activation in vitro (PERK (535–1093 Δ660–868); IPAx 0.3 and 0.5 μM, normalized to DMSO control)	SMILES	fold lower enzyme concentration at ½ kmax, obs versus no activator (IRE1α-KR43; compound 20 μM)	1/2kmax, obs (IRE1α-KR43 concentration at half-maximal kobs) (IRE1α-KR43; compound 20 μM)	Hill coefficient n (IRE1α-KR43; compound 20 μM)	fold activation of IRE1α-KR43 RNase activity (IRE1α-KR43; compounds 1 μM, IRE1α-KR43 200 nM, [32P]-labeled HP21)	fold change in rate of eIF2α phosphorylation by PERK (maximal activation) (PERK (535–1093 Δ660–868); 0.5 μM (500 nM) IPA, normalized to DMSO control, PERK 1 μM)	fold change in rate of eIF2α phosphorylation by PERK (inhibitory concentration) (PERK (535–1093 Δ660–868); 3 μM IPA, normalized to DMSO control)
–	–	–	–	CSc1ccc(NC(=O)Nc2ccc(Nc3nccc(Nc4cc(C5CC5)[nH]n4)n3)cc2)cc1 [IPA]	20 fold	0.43 µM	4.2	900 fold	3.3 fold	0.31 fold
did not enhance IRE1α activation	inactive	showed no effect	No activation was observed	CSc1ccc(NC(=O)Nc2ccc(Nc3nccc(Nc4cc(C5CC5)n(C)n4)n3)cc2)cc1 [IPAx]	–	8 µM	3.3	–	–	–
